Data from PubChem BioAssay (NCI).
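Five concentrations, 48 hours, 96-well plates. At the TGI there is no net growth.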

Tests used:
Experiment in all cases: inhibition of tumour cell growth, NCI panel, 48 h
[1] = system: A549 NSCLC
[2] = system: BT-549 breast
[3] = system: CAKI-1 renal
[4] = system: CCRF-CEM leukemia
[5] = system: HCT-15 colon
[6] = system: HOP-62 NSCLC
[7] = system: HS 578T breast
[8] = system: IGROV1 ovarian
[9] = system: K-562 leukemia
[10] = system: LOX IMVI melanoma
[11] = system: MCF7 breast
[12] = system: MDA-MB-231 breast
[13] = system: OVCAR-3 ovarian
[14] = system: OVCAR-5 ovarian
[15] = system: RPMI-8226 leukemia
[16] = system: SF-295 CNS
[17] = system: SK-MEL-28 melanoma
[18] = system: SW-620 colon
[19] = system: T-47D breast
[20] = system: TK-10 renal

Row | SMILES | TGI [1] [µM] | TGI [2] [µM] | TGI [3] [µM] | TGI [4] [µM] | TGI [5] [µM] | TGI [6] [µM] | TGI [7] [µM] | TGI [8] [µM] | TGI [9] [µM] | TGI [10] [µM] | TGI [11] [µM] | TGI [12] [µM] | TGI [13] [µM] | TGI [14] [µM] | TGI [15] [µM] | TGI [16] [µM] | TGI [17] [µM] | TGI [18] [µM] | TGI [19] [µM] | TGI [20] [µM]
1 | CO/N=C(\C(=O)Nc1cncs1)c1csc(N)n1 | > 10 | > 10 | > 10 | > 10 | > 10 | > 10 | > 10 | > 10 | > 10 | > 10 | > 10 | > 10 | > 10 | > 10 | > 10 | > 10 | > 10 | > 10 | > 10 | > 10
2 | COc1cc([C@H]2CC(=O)C[C@@H](c3cc(OC)c(OC)c(OC)c3)C23C(=O)c2ccccc2C3=O)cc(OC)c1OC | > 100 | > 100 | > 100 | > 100 | > 100 | > 100 | > 100 | > 100 | > 100 | > 100 | > 100 | > 100 | > 100 | > 100 | > 100 | > 100 | > 100 | > 100 | > 100 | > 100
3 | Cc1ccc2c(c1)C(C1Cc3cccc(C)c3C1=O)OC2=O (stereo not given) | > 100 | > 100 | > 100 | > 100 | > 100 | > 100 | > 100 | > 100 | > 100 | > 100 | > 100 | > 100 | > 100 | > 100 | 88.3 | > 100 | > 100 | > 100 | > 100 | > 100
4 | CCCC(=O)NC(C(=O)OCC)(N1CCOCC1)C(F)(F)F (stereo not given) | > 100 | > 100 | > 100 | > 100 | > 100 | > 100 | > 100 | > 100 | > 100 | > 100 | > 100 | > 100 | > 100 | > 100 | > 100 | > 100 | > 100 | > 100 | > 100 | > 100
5 | COc1ccc2oc(=O)c(-c3nc4ccccc4o3)cc2c1 | > 100 | > 100 | > 100 | > 100 | > 100 | > 100 | > 100 | > 100 | > 100 | > 100 | > 100 | > 100 | > 100 | > 100 | > 100 | > 100 | > 100 | > 100 | > 100 | > 100
6 | CC1=NN(C(=O)CC(=O)Nc2cccc(C)c2)C(=O)C1N=Nc1ccc(S(=O)(=O)c2ccc(N=NC3C(=O)N(C(=O)CC(=O)Nc4cccc(C)c4)N=C3C)cc2)cc1 (stereo not given) | > 100 | > 100 | > 100 | > 100 | > 100 | > 100 | > 100 | > 100 | > 100 | > 100 | > 100 | > 100 | > 100 | > 100 | > 100 | > 100 | > 100 | > 100 | > 100 | > 100
7 | COc1ccc2c(c1)CCN1CCCc3ccc(OC)cc3C21 (stereo not given) | > 100 | 89.3 | > 100 | > 100 | > 100 | > 100 | > 100 | > 100 | > 100 | > 100 | > 100 | > 100 | > 100 | > 100 | > 100 | > 100 | > 100 | > 100 | > 100 | > 100
8 | CC1OC(OC2C(CO)OC(O[C@H]3CC[C@@]4(C)C(=CC[C@H]5[C@@H]6C[C@@H]7O[C@](O)(CC[C@H](CO)COC8OC(CO)C(O)C(O)C8O)[C@@H](C)[C@@H]7[C@@]6(C)CC[C@@H]54)C3)C(OC3OC(C)C(O)C(O)C3O)C2O)C(O)C(O)C1O (stereo not given in full) | > 100 | > 100 | > 100 | > 100 | > 100 | > 100 | > 100 | > 100 | > 100 | > 100 | > 100 | > 100 | > 100 | > 100 | > 100 | > 100 | > 100 | > 100 | > 100 | > 100
9 | C=C(C)[C@@H]1CCC2=C[C@H](OC2=O)[C@@]2(C)C[C@@H]2C(=O)/C=C(/C)C(=O)[C@H]1OC(C)=O | > 71.9 | 27.4 | 42 | > 25.2 | > 55.7 | 97.6 | 88.6 | > 69.3 | > 32.2 | 41.3 | > 37.6 | > 100 | > 50.8 | 43.9 | 23.5 | > 100 | 52.9 | > 44.6 | 26.1 | > 62.7
10 | O=C1C(c2c(O)[nH]c3ccccc23)=Nc2ccc(Br)cc21 | > 100 | 77.2 | > 100 | > 100 | > 100 | 74.1 | 72.8 | > 100 | > 100 | > 100 | 18.2 | 77 | > 100 | > 100 | > 100 | 89.6 | > 100 | > 100 | > 100 | 65.2
11 | CC1OC(OC2C(CO)OC(O[C@H]3CC[C@@]4(C)C(=CC[C@H]5[C@@H]6C[C@@H]7O[C@](O)(CC[C@H](C)COC8OC(CO)C(O)C(O)C8O)[C@@H](C)[C@@H]7[C@@]6(C)CC[C@@H]54)C3)C(OC3OC(C)C(O)C(O)C3O)C2O)C(O)C(O)C1O (stereo not given in full) | 5.55 | 18 | 3.61 | 4.47 | 10 | 6.04 | 6.71 | 23.1 | > 33.4 | 4.9 | > 65.5 | 30.8 | > 29.3 | > 49.1 | 17.4 | 23.1 | 12 | 4.02 | 17 | > 100
12 | C/C(=N/c1[nH]c(=O)cc2c1C(=O)CC2)N(C)C | > 200 | > 200 | > 200 | > 200 | > 200 | > 200 | > 200 | > 200 | > 200 | > 200 | > 200 | > 200 | > 200 | > 200 | > 200 | > 200 | > 200 | > 200 | > 200 | > 200
13 | Cn1c(=O)cc(N=Nc2ccc(Cl)c(Cl)c2)[nH]c1=O | > 100 | 96.2 | 28.5 | 68.8 | 38.9 | > 100 | 94 | > 100 | 55.9 | 34.3 | 59.8 | 45.3 | 33.2 | > 100 | 71.1 | > 100 | 57.5 | 58.9 | > 100 | 47.9
14 | CC(=O)OC[C@@]1(C)[C@@H]2[C@@H]3[C@@]4(CO[C@]3(C)C(=O)[C@@]3(O)C[C@H](C)[C@H](OC(C)=O)[C@@H]3[C@H]4OC(C)=O)[C@H](OC(=O)c3ccccc3)C[C@@H]21 | > 100 | > 100 | > 100 | > 100 | > 100 | > 100 | > 100 | > 100 | > 100 | > 100 | > 100 | > 100 | > 100 | > 100 | > 100 | > 100 | > 100 | > 100 | > 100 | > 100
15 | O=C(Nc1sccc1S(=O)(=O)c1ccc(Cl)cc1)c1ccccc1 | > 100 | > 100 | > 100 | > 100 | > 100 | > 100 | > 100 | > 100 | > 100 | > 100 | > 100 | > 100 | > 100 | > 100 | > 100 | > 100 | > 100 | > 100 | > 100 | > 100
16 | CC(=O)NC1C(OC2C(CO)OC(OCC3OC(n4ccc(N)nc4=O)C(O)C3O)C(NC(C)=O)C2O)OC(CO)C(O)C1O (stereo not given) | > 100 | > 100 | > 100 | > 100 | > 100 | > 100 | > 100 | > 100 | > 100 | > 100 | > 100 | > 100 | > 100 | > 100 | > 100 | > 100 | > 100 | > 100 | > 100 | > 100
